Reference: US20230293680A1, “A COMPOSITION OF ANTI-DR5 ANTIBODIES AND AN IMMUNOMODULATORY IMIDE DRUG FOR USE IN TREATING MULTIPLE MYELOMA” (Genmab B.V., priority 2020, published 2023)
Read-outs that look alike come from different tables or passages of the source.

Columns and labels:
[1] = test system: NCI-H929 cells; test: viability of lenalidomide-preincubated NCI-H929 cells; assay type: cell-based, human; settings: NCI-H929 cells preincubated 5 days with 3 μM lenalidomide
Protocol: FIG. 11: Percentage inhibition of viability of lenalidomide-preincubated NCI-H929 cells by HexaBody-DR5/DR5, lenalidomide and the combination thereof. […] Graphs show the mean and SD of duplicate measurements from a representative experiment (n=3).

[2] = test system: primary MM cells; settings: 3 μM, 24 h viability assays on primary MM cells ex vivo
[3] = test system: human cancer cell lines; test: viability assays in various human cancer cell lines (overall); assay type: cell-based
Protocol: (§1) COLO 205 cancer cells were harvested by pooling the culture supernatant containing non-adherent cells and trypsinized adherent cells. The other cell lines were harvested by trypsinization. For trypsinization, adherent cells were incubated with Trypsin-EDTA (Gibco, Cat no 15400-054) diluted in PBS (B.Braun; Cat no 3623140) to a final concentration of 0.05% Trypsin for 2 minutes at 37° C. and passed through a cell strainer. Cells were pelleted by centrifugation for 5 minutes at 1,200 rpm and resuspended at a concentration of 0.5x10^5 cells/mL in culture medium.
(§2) 100 μL of single cell suspensions (5,000 cells per well) were seeded in polystyrene 96-well flat-bottom plates (Greiner Bio-One, Cat no 655180) and allowed to adhere overnight at 37° C. The following day, 50 μL antibody samples (0.002-133 nM final concentrations in 4-fold dilutions) were added to the adherent cells and incubated for 3 days at 37° C. As a positive control in all viability assays, cells were incubated with 5 μM staurosporine (Sigma Aldrich, Cat no S6942), and untreated cells were included as the negative control. The viability of the cultured cells was determined in a CellTiter-Glo Luminescent Cell Viability Assay (Promega, Cat no G7571) that quantifies the presence of ATP, which is an indicator of metabolically active cells. From the kit, 15 μL Luciferin Solution Reagent was added to each well of the viability assay plate. Next, plates were incubated for 1.5 hours at 37° C. 100 μL supernatant was transferred to a white OptiPlate-96 (Perkin Elmer, Cat no 6005299) and luminescence was measured on an EnVision Multilabel Reader (PerkinElmer). Data were analyzed and plotted using non-linear regression (sigmoidal dose-response with variable slope) using GraphPad Prism software. The percentage viable cells was calculated using the following formula: % viable cells=[(luminescence antibody sample−luminescence staurosporine sample)/(luminescence no antibody sample−luminescence staurosporine sample)]×100.

[4] = test system: NCI-H929 cells; test: cytotoxicity in NCI-H929 cells with healthy donor PBMCs; assay type: cell-based, human; settings: 20 μg/mL, 24 h, absence and presence of healthy donor PBMCs
Protocol: FIG. 12: Inhibition of cell viability by HexaBody-DR5/DR5 in combination with lenalidomide on NCI-H929 cells in presence and absence of healthy donor peripheral blood mononuclear cells (PBMCs) in vitro. (A) Percentage kill of NCI-H929 cells by 20 μg/mL HexaBody-DR5/DR5 after a 24-hour incubation in the absence and presence of healthy donor PBMCs (n=6) in a 40:1 effector to target ratio. Mean and SD are shown. (ns) not significant (paired t-test). […] NCI-H929 cells were incubated with lenalidomide-exposed PBMCs and treated with lenalidomide and/or HexaBody-DR5/DR5 for an additional 24 h. Mean percentage kill and SD is shown. **p<0.005; ***p<0.0005 (paired t-test).
To test possible indirect immunomodulatory effects of lenalidomide on HexaBody-DR5/DR5-mediated killing, PBMCs of healthy donors were preincubated with 3 μM lenalidomide for 5 days. Subsequently, NCI-H929 cells were incubated with 3 μM lenalidomide, lenalidomide-exposed PBMCs and/or 20 μg/mL HexaBody-DR5/DR5 for an additional 24 h.

[5] = test system: colorectal cancer PDX model CR3056; test: in vivo anti-tumor activity, PDX model; set-up: species or system mice
Protocol: (§3) Immunodeficient 8-13 weeks old female BALB/c athymic nude mice (Beijing HFK Bio-Technology Co. Ltd.) or nu/nu mice (Vital River Laboratories Research Models and Services) were inoculated subcutaneously at the right flank with one tumor fragment (2-3 mm diameter) derived from colorectal cancer PDX model CR0126 or CR3056 at CrownBio, Beijing, China. Earmarks were placed for mouse identification. Tumor volumes were measured at least twice per week using a digital caliper (PLEXX). Tumor volumes (mm^3) were calculated as follows: tumor volume=0.5×(length)×(width)^2. When the mean tumor size reached ˜200 mm^3, mice were divided into groups of 8 mice each, with equal tumor size distribution (average and variance). Mice were treated QW×2 by IV injection of 10 μL IgG1-DR5-01-G56T-E430G+IgG1-DR5-05-E430G per gram body weight: 0.2 mg/mL (2 mg/kg) or 0.05 mg/mL (0.5 mg/kg). For each model, statistical analysis was performed on the last day that all groups were intact.

[6] = test system: colorectal cancer PDX model CR0126; test: in vivo anti-tumor activity, PDX model; set-up: species or system mice; settings: 2 mg/kg QWx2 IV; Mann-Whitney p<0.0379
Protocol: as §3

[7] = single dose study by intravenous infusion, plasma PK (generic IgG ECLIA); settings: for Cmax / Tmax / Vd: group mean
[8] = nonclinical immune agonism / cytokine release assessment
[9] = test system: primary MM cells; test: 24-hour ex vivo viability assay with BMNCs of MM patients, flow cytometry; assay type: cell-based, human; settings: 20 μg/mL
[10] = test system: CDX and PDX mouse models; test: in vivo anti-tumor response in CDX and PDX mouse models (overall)
Protocol: Therefore, the FIH starting dose of 0.3 mg/kg was considered to be in the lower end of a potential therapeutic dose-range in human patients.

[11] = dose range finding study by intravenous infusion, plasma PK; assay type: in vivo, cynomolgus monkey; settings: 0.1, 0.5, 5 and 25 mg/kg IV
[12] = repeat-dose toxicity study, 5 weekly IV infusions (toxicokinetics, NOAEL/HNSTD)
[13] = cynomolgus monkey, in vivo, iv
[14] = test system: PANC-1; test: three-day viability assay (CellTiter-Glo); assay type: cell-based, human; settings: PANC-1 pancreatic, 3 days
Protocol: as §1, §2

[15] = test system: BxPC-3; test: three-day viability assay (CellTiter-Glo); assay type: cell-based, human; settings: BxPC-3 pancreatic, 3 days
Protocol: as §1, §2

[16] = test system: A375; test: three-day viability assay (CellTiter-Glo); assay type: cell-based, human; settings: A375 melanoma, 3 days
Protocol: as §1, §2

[17] = test system: HCT-15; test: three-day viability assay (CellTiter-Glo); assay type: cell-based, human; settings: HCT-15 CRC, 3 days
Protocol: as §1, §2

[18] = test system: SK-MES-1; test: three-day viability assay (CellTiter-Glo); assay type: cell-based, human; settings: SK-MES-1 NSCLC, 3 days
Protocol: as §1, §2

[19] = test system: COLO 205; test: three-day viability assay (CellTiter-Glo); assay type: cell-based, human; settings: COLO 205 CRC, 3 days
Protocol: as §1, §2

[20] = test system: SNU-5; test: three-day viability assay (CellTiter-Glo); assay type: cell-based, human; settings: SNU-5 gastric, 3 days
Protocol: as §1, §2

[21] = median over the seven cell lines with >40% max inhibition
[22] = newly diagnosed (ND) patient samples
[23] = relapsed and/or refractory (RR) patient samples
[24] = 1QWx5 IV dosing, GLP toxicity study

Which results are given for Nc1cccc2c1CN(C1CCC(=O)NC1=O)C2=O (stereo not drawn) [lenalidomide]?
effect of preincubation on HexaBody-DR5/DR5-mediated kill [1]: no direct effect; single agent activity [2]: no single agent activity

Which results are given for “HexaBody-DR5/DR5: 1:1 mixture of IgG1-hDR5-01-G56T-E430G and IgG1-hDR5-05-E430G, two non-competing humanized anti-human DR5 IgG1 antibodies”?
maximal inhibition of viability ([3]; in seven of the twelve cell lines tested): more than 40%; IC20 [3, 21]: 0.554 nM; Overall Median IC20 [3, 21]: 0.083 µg/mL; effect of FcγR-mediated crosslinking on cytotoxicity [4]: did not increase; tumor growth inhibition ([5]; 0.5 mg/kg QWx2 IV, Mann-Whitney p<0.0379): significant tumor growth inhibition; tumor growth inhibition ([5]; 2 mg/kg QWx2 IV, Mann-Whitney p<0.0003): significant tumor growth inhibition; tumor growth inhibition [6]: significant tumor growth inhibition; Cmax ([7]; 0.5 mg/kg single IV): 16.7 µg/mL; Tmax ([7]; 0.5 mg/kg single IV): 0.0417 days; Vd ([7]; 0.5 mg/kg single IV): 63.5 mL/kg; Cmax ([7]; 5 mg/kg single IV): 135.0 µg/mL; Tmax ([7]; 5 mg/kg single IV): 0.0417 days; Vd ([7]; 5 mg/kg single IV): 72.6 mL/kg; Cmax ([7]; 25 mg/kg single IV): 470.3 µg/mL; Tmax ([7]; 25 mg/kg single IV): 0.14 days; Vd ([7]; 25 mg/kg single IV): 91.0 mL/kg; increase in exposure with increasing dose, based on nAUC0-∞ ([7]; 0.5 to 25 mg/kg): more or less proportional increase in exposure; increase in exposure, based on nCmax ([7]; between 5 and 25 mg/kg): less than proportional increase in exposure; increase in exposure, based on nCmax ([7]; up to a dose of 5 mg/kg): proportional increase in exposure; hazard of acute cytokine-releasing activity [8]: no hazard of acute cytokine-releasing activity has been identified; immune agonistic properties [8]: no immune agonistic properties; median lysis of MM cells ([9]; RR patients under treatment or last treatment shorter than 1 month before BM biopsy): 62%; median lysis of MM cells ([9]; RR patients with last exposure to therapy >1 month before BM biopsy): 23%; median lysis of MM cells [9, 22]: 19%; range of lysis of MM cells [9, 22]: 3-69%; median lysis of MM cells [9, 23]: 43%; range of lysis of MM cells [9, 23]: 0-86%; In vivo anti-tumor response in CDX and PDX mouse models ([10]; dose giving full response): 2 mg/kg; In vivo anti-tumor response in CDX and PDX mouse models ([10]; dose giving partial response): 0.5 mg/kg; increase in exposure with increasing dose, based on nCmax and nAUC0-∞ [11]: proportional increase in exposure; target-mediated clearance (plasma concentration-time profiles) ([11]; single or repeated dose): no indications of target-mediated clearance; HNSTDcyno [12, 24]: 50 mg/kg; NOAELcyno [12, 24]: 50 mg/kg; MRSDhuman (=NOAELcyno/6) ([12]; converted from cynomolgus NOAEL/HNSTD): 8.3 mg/kg; AUC0-∞ (μg · day/· mL^−1) ([13]; 0.5 mg/kg): 40.3 μg · day/· mL^−1; CL (mL · day^−1/· kg^−1) ([13]; 0.5 mg/kg): 12.6 mL · day^−1/· kg^−1; T1/2 ([13]; 0.5 mg/kg): 3.48 days; nCmax (μg · mL^−1/mg · kg^−1) ([13]; 0.5 mg/kg): 33.5 μg · mL^−1/mg · kg^−1; AUC0-∞ (μg · day/· mL^−1) ([13]; 5 mg/kg): 452.6 μg · day/· mL^−1; CL (mL · day^−1/· kg^−1) ([13]; 5 mg/kg): 11.4 mL · day^−1/· kg^−1; T1/2 ([13]; 5 mg/kg): 4.59 days; nCmax (μg · mL^−1/mg · kg^−1) ([13]; 5 mg/kg): 27.0 μg · mL^−1/mg · kg^−1; AUC0-∞ (μg · day/· mL^−1) ([13]; 25 mg/kg): 2748 μg · day/· mL^−1; CL (mL · day^−1/· kg^−1) ([13]; 25 mg/kg): 9.10 mL · day^−1/· kg^−1; T1/2 ([13]; 25 mg/kg): 6.93 days; nCmax (μg · mL^−1/mg · kg^−1) ([13]; 25 mg/kg): 18.8 μg · mL^−1/mg · kg^−1; Average IC20 [14]: 0.083 µg/mL; IC20 [14]: 0.554 nM; Max inhibition % [14]: 61.0%; Average IC20 [15]: 0.102 µg/mL; IC20 [15]: 0.677 nM; Max inhibition % [15]: 89.4%; Average IC20 [16]: 0.067 µg/mL; IC20 [16]: 0.445 nM; Max inhibition % [16]: 54.6%; Average IC20 [17]: 0.104 µg/mL; IC20 [17]: 0.692 nM; Max inhibition % [17]: 66.7%; Average IC20 [18]: 0.086 µg/mL; IC20 [18]: 0.572 nM; Max inhibition % [18]: 76.6%; Average IC20 [19]: 0.015 µg/mL; IC20 [19]: 0.103 nM; Max inhibition % [19]: 99.6%; Average IC20 [20]: 0.041 µg/mL; IC20 [20]: 0.274 nM; Max inhibition % [20]: 44.7%
